Drawing on patent publication US11667645B2, “Granzyme B directed imaging and therapy” (CytoSite Biopharma Inc., priority 2018, dated 2023), this text covers IC50 for 22 molecules.

pIC50: −log10 of the molar value. Bounds are passed on as bounds.

Chain of Granzyme B (human lymphocytes) (P10144 21-247): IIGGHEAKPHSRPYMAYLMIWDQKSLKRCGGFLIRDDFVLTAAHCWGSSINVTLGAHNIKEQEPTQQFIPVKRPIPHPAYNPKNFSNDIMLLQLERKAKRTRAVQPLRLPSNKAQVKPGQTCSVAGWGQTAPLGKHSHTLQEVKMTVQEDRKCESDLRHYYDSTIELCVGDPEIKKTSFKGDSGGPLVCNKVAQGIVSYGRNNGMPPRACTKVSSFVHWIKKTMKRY

One experiment has as its target Granzyme B (human lymphocytes) (Homo sapiens (Human), UniProt P10144). Nature of the experiment: human Granzyme B biochemical assay.
Conditions: not given
The essentials:
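Fluorogenic Ac-IETD-AFC cleavage (Ex 400/Em 505 nm) read after 60 min at 22 °C, following 30 min, 22 °C enzyme–compound pre-incubation. Working stocks: enzyme 10 nM in 0.1% BSA buffer, substrate 800 µM, compound 8 points, 3.16-fold from 40 µM. Controls set 0% (DMSO) and 100% (standard inhibitor) inhibition; IC50 fitted.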
As usually defined, the pIC50 is −log10 of the IC50, conventionally taken in molar units. On to `CC(C)[C@H](NC(=O)CF)C(=O)N[C@H]1COc2cccc3c2N(C1=O)[C@H](C(=O)NCc1c[nH]nn1)C3` [Compound C102, (1S,8S)-8-[(S)-2-(2-Fluoro-acetylamino)-3-methyl-butyrylamino]-9-oxo-1,2,8,9-tetrahydro-7H-6-oxa-9a-aza-benzo[cd]azulene-1-carboxylic acid (1H-[1,2,3]triazol-4-ylmethyl)-amide], for which the pIC50 is 6.52 to 9.00.

Staying with this experiment, now noted: Granzyme B (human lymphocytes) 5 nM, substrate Ac-IETD-AFC 200 μM, Cpd incubation with enzyme 30 mins, 22° C., read time 60 mins; read-out: IC50.
For the molecule `CCC(CC)[C@H](NC(=O)c1ccccc1)C(=O)N[C@H]1CCc2cccc3c2N(C1=O)[C@H](C(=O)NCc1c[nH]nn1)C3` [Compound C073, (2S,5S)-5-((S)-2-Benzoylamino-3-ethyl-pentanoylamino)-4-oxo-1,2,4,5,6,7-hexahydro-azepino[3,2,1-hi]indole-2-carboxylic acid (1H-[1,2,3]triazol-4-ylmethyl)-amide], the pIC50 is 6.00 to 6.52.

Take `CC[C@H](C)[C@H](NC(=O)COCCF)C(=O)N[C@H]1CNc2cccc3c2N(C1=O)[C@H](C(=O)NCc1c[nH]nn1)C3` [Compound C143, (3S,6S)-3-{(2S,3S)-2-[2-(2-Fluoro-ethoxy)-acetylamino]-3-methyl-pentanoylamino}-4-oxo-1,2,3,4,6,7-hexahydro-[1,4]diazepino[3,2,1-hi]indole-6-carboxylic acid (1H-[1,2,3]triazol-4-ylmethyl)-amide]: the pIC50 is 6.52 to 9.00.

Consider `O=C(N[C@@H](CO)C(=O)N[C@H]1CCc2cccc3c2N(C1=O)[C@H](C(=O)NCc1c[nH]nn1)C3)c1ccccc1` [Compound C040, (2S,5S)-5-((S)-2-Benzoylamino-3-hydroxy-propionylamino)-4-oxo-1,2,4,5,6,7-hexahydro-azepino[3,2,1-hi]indole-2-carboxylic acid (1H-[1,2,3]triazol-4-ylmethyl)-amide], for which the pIC50 is below 5.30.

Turning to `CC[C@H](C)[C@H](NC(=O)COCCF)C(=O)N[C@H]1CCc2cccc3c2N(C1=O)[C@H](C(=O)NCc1nn[nH]n1)C3` [Compound C119, (2S,5S)-5-{(2S,3S)-2-[2-(2-Fluoro-ethoxy)-acetylamino]-3-methyl-pentanoylamino}-4-oxo-1,2,4,5,6,7-hexahydro-azepino[3,2,1-hi]indole-2-carboxylic acid (2H-tetrazol-5-ylmethyl)-amide], the pIC50 is 6.52 to 9.00. The same measure, in the same setting: under `CC[C@H](C)[C@H](NC(=O)Cc1cc2ccccc2s1)C(=O)N[C@H]1CCc2cccc3c2N(C1=O)[C@H](C(=O)NCc1c[nH]nn1)C3` [Compound C158, (2S,5S)-5-[(2S,3S)-2-(2-Benzo[b]thiophen-2-yl-acetylamino)-3-methyl-pentanoylamino]-4-oxo-1,2,4,5,6,7-hexahydro-azepino[3,2,1-hi]indole-2-carboxylic acid (1H-[1,2,3]triazol-4-ylmethyl)-amide] stands 6.52 to 9.00; under `C[C@H](NC(=O)Cc1ccccc1)C(=O)N[C@H]1CCc2cccc3c2N(C1=O)[C@H](C(=O)NCc1c[nH]nn1)C3` [Compound C013, (2S,5S)-4-Oxo-5-((S)-2-phenylacetylamino-propionylamino)-1,2,4,5,6,7-hexahydro-azepino[3,2,1-hi]indole-2-carboxylic acid (1H-[1,2,3]triazol-4-ylmethyl)-amide], below 5.30. Regarding `O=C(N[C@H](C(=O)N[C@H]1CCc2cccc3c2N(C1=O)[C@H](C(=O)NCc1c[nH]nn1)C3)C1CC1)c1ccccc1` [Compound C082, (2S,5S)-5-((S)-2-Benzoylamino-2-cyclopropyl-acetylamino)-4-oxo-1,2,4,5,6,7-hexahydro-azepino[3,2,1-hi]indole-2-carboxylic acid (1H-[1,2,3]triazol-4-ylmethyl)-amide], the pIC50 is 6.00 to 6.52. As to `O=C(Cc1ccccc1)N[C@@H](CO)C(=O)N[C@H]1CCc2cccc3c2N(C1=O)[C@H](C(=O)NCc1c[nH]nn1)C3` [Compound C018, (2S,5S)-5-((S)-3-Hydroxy-2-phenylacetylamino-propionylamino)-4-oxo-1,2,4,5,6,7-hexahydro-azepino[3,2,1-hi]indole-2-carboxylic acid (1H-[1,2,3]triazol-4-ylmethyl)-amide], the pIC50 was below 5.30. Turning to `CC[C@H](C)[C@H](NC(=O)COCCF)C(=O)N[C@H]1CCc2cccc3c2N(C1=O)[C@H](C(=O)NCc1cnoc1)C3` [Compound C117, (2S,5S)-5-{(2S,3S)-2-[2-(2-Fluoro-ethoxy)-acetylamino]-3-methyl-pentanoylamino}-4-oxo-1,2,4,5,6,7-hexahydro-azepino[3,2,1-hi]indole-2-carboxylic acid (isoxazol-4-ylmethyl)-amide], the negative-log IC50 (pIC50) was below 5.30.

As for `CC[C@H](C)[C@H](NC(=O)COCCF)C(=O)N[C@H]1CCc2cccc3c2N(C1=O)[C@H](C(=O)NCc1cnsc1)C3` [Compound C118, (2S,5S)-5-{(2S,3S)-2-[2-(2-Fluoro-ethoxy)-acetylamino]-3-methyl-pentanoylamino}-4-oxo-1,2,4,5,6,7-hexahydro-azepino[3,2,1-hi]indole-2-carboxylic acid (isothiazol-4-ylmethyl)-amide], the pIC50 was below 5.30. Same read-out and setting: under `CC[C@H](C)[C@H](NC(=O)COCCF)C(=O)N[C@H]1CCc2cccc3c2N(C1=O)[C@H](C(=O)NCc1ccsc1)C3` [Compound C109] stands below 5.30; under `CC(=O)N[C@H](C(=O)N[C@H]1CCc2cccc3c2N(C1=O)[C@H](C(=O)N[C@@H](CCC(=O)O)C(=O)O)C3)C(C)C` [Compound C094, (S)-2-{[(2S,5S)-5-((S)-2-Acetylamino-3-methyl-butyrylamino)-4-oxo-1,2,4,5,6,7-hexahydro-azepino[3,2,1-hi]indole-2-carbonyl]-amino}-pentanedioic acid], below 5.30; under `CC(C)C[C@H](NC(=O)Cc1csc2ccccc12)C(=O)N[C@H]1CCc2cccc3c2N(C1=O)[C@H](C(=O)NCc1c[nH]nn1)C3` [Compound C005, (2S,5S)-5-[(S)-2-(2-Benzo[b]thiophen-3-yl-acetylamino)-4-methyl-pentanoylamino]-4-oxo-1,2,4,5,6,7-hexahydro-azepino[3,2,1-hi]indole-2-carboxylic acid (1H-[1,2,3]triazol-4-ylmethyl)-amide], 5.30 to 6.00. On the same count and under the same terms, under `CC[C@H](C)[C@H](NC(=O)COCCF)C(=O)N[C@H]1CCc2cccc3c2N(C1=O)[C@H](C(=O)NCc1cocn1)C3` [Compound C114, (2S,5S)-5-{(2S,3S)-2-[2-(2-Fluoro-ethoxy)-acetylamino]-3-methyl-pentanoylamino}-4-oxo-1,2,4,5,6,7-hexahydro-azepino[3,2,1-hi]indole-2-carboxylic acid (oxazol-4-ylmethyl)-amide] stands below 5.30; under `CC[C@H](C)[C@H](NC(=O)COCCF)C(=O)N[C@H]1CCc2cccc3c2N(C1=O)[C@H](C(=O)NCc1cnc[nH]1)C3` [Compound C110, (2S,5S)-5-{(2S,3S)-2-[2-(2-Fluoro-ethoxy)-acetylamino]-3-methyl-pentanoylamino}-4-oxo-1,2,4,5,6,7-hexahydro-azepino[3,2,1-hi]indole-2-carboxylic acid (3H-imidazol-4-ylmethyl)-amide], below 5.30; under `O=C(Cc1csc2ccccc12)N[C@H](C(=O)N[C@H]1CCc2cccc3c2N(C1=O)[C@H](C(=O)NCc1c[nH]nn1)C3)c1ccccc1` [Compound C009, (2S,5S)-5-[(S)-2-(2-Benzo[b]thiophen-3-yl-acetylamino)-2-phenyl-acetylamino]-4-oxo-1,2,4,5,6,7-hexahydro-azepino[3,2,1-hi]indole-2-carboxylic acid (1H-[1,2,3]triazol-4-ylmethyl)-amide], below 5.30. As to `O=C(N[C@H](C(=O)N[C@H]1CCc2cccc3c2N(C1=O)[C@H](C(=O)NCc1c[nH]nn1)C3)C1CCCCC1)c1ccccc1` [Compound C079, (2S,5S)-5-((S)-2-Benzoylamino-2-cyclohexyl-acetylamino)-4-oxo-1,2,4,5,6,7-hexahydro-azepino[3,2,1-hi]indole-2-carboxylic acid (1H-[1,2,3]triazol-4-ylmethyl)-amide], the pIC50 was 5.30 to 6.00. Take `CC[C@H](C)[C@H](NC(=O)Cc1ccccc1)C(=O)N[C@H]1CCc2cccc3c2N(C1=O)[C@H](C(=O)NCc1c[nH]nn1)C3` [Compound C017, (2S,5S)-5-((2S,3S)-3-Methyl-2-phenylacetylamino-pentanoylamino)-4-oxo-1,2,4,5,6,7-hexahydro-azepino[3,2,1-hi]indole-2-carboxylic acid(1H-[1,2,3]triazol-4-ylmethyl)-amide]: the pIC50 was 6.52 to 9.00. On the same count and under the same terms, with `CCC(C)[C@H](NC(=O)COCCF)C(=O)N[C@H]1CCc2cccc3c2N(C1=O)[C@H](C(=O)NCc1ccoc1)C3` (stereo in doubt) [Compound C108, (2S,5S)-5-{(2S,3R)-2-[2-(2-Fluoro-ethoxy)-acetylamino]-3-methyl-pentanoylamino}-4-oxo-1,2,4,5,6,7-hexahydro-azepino[3,2,1-hi]indole-2-carboxylic acid (furan-3-ylmethyl)-amide] the figure was below 5.30; with `CC(=O)N[C@H](C(=O)N[C@H]1CCc2cccc3c2N(C1=O)[C@H](C(=O)NCc1c[nH]nn1)C3)c1ccccc1` [Compound C031, (2S,5S)-5-((S)-2-Acetylamino-2-phenyl-acetylamino)-4-oxo-1,2,4,5,6,7-hexahydro-azepino[3,2,1-hi]indole-2-carboxylic acid (1H-[1,2,3]triazol-4-ylmethyl)-amide], 5.30 to 6.00; with `O=C(O)CC[C@H](NC(=O)Cc1csc2ccccc12)C(=O)N[C@H]1CCc2cccc3c2N(C1=O)[C@H](C(=O)NCc1c[nH]nn1)C3` [Compound C008, (S)-4-(2-Benzo[b]thiophen-3-yl-acetylamino)-4-{(2S,5S)-4-oxo-2-[(1H-[1,2,3]triazol-4-ylmethyl)-carbamoyl]-1,2,4,5,6,7-hexahydro-azepino[3,2,1-hi]indol-5-ylcarbamoyl}butyric acid], below 5.30.
